Ten molecules from ChEMBL document CHEMBL1201862, “PubChem BioAssay data set” (2004) can be followed below.

Activity calls are given as the source filed them.

For assay [1], the target named is Cytochrome P450 2C9 (Homo sapiens, UniProt P11712).
The nature of assay [2]: Luminescence Cell-Based Dose Confirmation HTS to Identify Activators of 5'UTR Stem-Loop Driven Alpha-Synuclein mRNA Translation in H4 Neuroglioblastoma Cells. [Related pubchem assays: 1829 (Project Summary), 1814 (Primary HTS)]. Format: functional.
The nature of assay [3]: Luminescence Cell-Based Dose Response HTS to Identify Activators of Luciferase Translation or Activity in H4 […] Cells. [Related pubchem assays: 1829 (Project Summary), 1814 (Primary HTS)]. The class given is functional.
In assay [4] the target is T1, Adenosylmethionine-8-amino-7-oxononanoate aminotransferase (Mycobacterium tuberculosis, UniProt P9WQ81).
T1 sequence (P9WQ81 whole entry): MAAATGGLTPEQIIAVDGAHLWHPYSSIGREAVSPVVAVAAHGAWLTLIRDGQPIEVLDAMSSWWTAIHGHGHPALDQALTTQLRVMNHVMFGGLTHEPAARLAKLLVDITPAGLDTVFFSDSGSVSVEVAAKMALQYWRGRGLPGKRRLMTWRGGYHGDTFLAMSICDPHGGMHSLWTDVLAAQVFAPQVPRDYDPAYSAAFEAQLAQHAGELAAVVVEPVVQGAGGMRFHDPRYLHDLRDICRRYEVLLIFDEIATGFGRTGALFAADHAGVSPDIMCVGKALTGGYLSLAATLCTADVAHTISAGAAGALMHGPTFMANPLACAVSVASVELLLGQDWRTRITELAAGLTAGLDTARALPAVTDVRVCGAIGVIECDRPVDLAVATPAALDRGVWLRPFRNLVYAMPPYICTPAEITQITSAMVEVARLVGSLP
Description: Mycobacterium tuberculosis BioA enzyme inhibitor Measured in Biochemical System Using Plate Reader - 2163-02_Inhibitor_Dose_CherryPick_Activity. The class given is functional, Mycobacterium tuberculosis UT205.

Assay [5] concerns H4. Description: Luminescence Cell-Based Dose Response HTS to Identify Activators of 5'UTR Stem-Loop Driven Prion Protein mRNA Translation in H4 Neuroglioblastoma Cells. [Related pubchem assays: 1829 (Project Summary), 1814 (Primary HTS)]. The class given is functional. The settings on record: Homo sapiens.
The test system of assay [6] is HEK293. Description: cells. Format: functional, cell-based. The settings on record: Homo sapiens.
Assay [7] relates to HEK293. Description: NOD2 signaling inhibitors in MDP-stimulated cells, cell-based, uHTS, luminescence (AID 2001). Format: functional. The following applies: Homo sapiens.
Assay [8] deals with HEK293. In words: inhibitors of LMP1-driven NF-kB reporter, dose response, cell-based, HEK293, luciferase, cherry-pick (AID 588343). The class given is functional. The settings on record: Homo sapiens.
For assay [9], the system named is HEK293. In words: cells. The class given is functional, cell-based. The settings on record: Homo sapiens. This is another data set of the same source.
Assay [10] relates to HEK293. In words: cells. Format: functional, cell-based. The settings on record: Homo sapiens. The source holds these as a separate data set.
For assay [11], the target named is Nucleotide-binding oligomerization domain-containing protein 2 (Homo sapiens, UniProt Q9HC29). In words: NOD2 signaling inhibitors, cell-based, luminescence, uHTS, HEK293 (AID 1566). The class given is functional.
Sequence of Nucleotide-binding oligomerization domain-containing protein 2 (Q9HC29 whole entry, the tested form may be a part): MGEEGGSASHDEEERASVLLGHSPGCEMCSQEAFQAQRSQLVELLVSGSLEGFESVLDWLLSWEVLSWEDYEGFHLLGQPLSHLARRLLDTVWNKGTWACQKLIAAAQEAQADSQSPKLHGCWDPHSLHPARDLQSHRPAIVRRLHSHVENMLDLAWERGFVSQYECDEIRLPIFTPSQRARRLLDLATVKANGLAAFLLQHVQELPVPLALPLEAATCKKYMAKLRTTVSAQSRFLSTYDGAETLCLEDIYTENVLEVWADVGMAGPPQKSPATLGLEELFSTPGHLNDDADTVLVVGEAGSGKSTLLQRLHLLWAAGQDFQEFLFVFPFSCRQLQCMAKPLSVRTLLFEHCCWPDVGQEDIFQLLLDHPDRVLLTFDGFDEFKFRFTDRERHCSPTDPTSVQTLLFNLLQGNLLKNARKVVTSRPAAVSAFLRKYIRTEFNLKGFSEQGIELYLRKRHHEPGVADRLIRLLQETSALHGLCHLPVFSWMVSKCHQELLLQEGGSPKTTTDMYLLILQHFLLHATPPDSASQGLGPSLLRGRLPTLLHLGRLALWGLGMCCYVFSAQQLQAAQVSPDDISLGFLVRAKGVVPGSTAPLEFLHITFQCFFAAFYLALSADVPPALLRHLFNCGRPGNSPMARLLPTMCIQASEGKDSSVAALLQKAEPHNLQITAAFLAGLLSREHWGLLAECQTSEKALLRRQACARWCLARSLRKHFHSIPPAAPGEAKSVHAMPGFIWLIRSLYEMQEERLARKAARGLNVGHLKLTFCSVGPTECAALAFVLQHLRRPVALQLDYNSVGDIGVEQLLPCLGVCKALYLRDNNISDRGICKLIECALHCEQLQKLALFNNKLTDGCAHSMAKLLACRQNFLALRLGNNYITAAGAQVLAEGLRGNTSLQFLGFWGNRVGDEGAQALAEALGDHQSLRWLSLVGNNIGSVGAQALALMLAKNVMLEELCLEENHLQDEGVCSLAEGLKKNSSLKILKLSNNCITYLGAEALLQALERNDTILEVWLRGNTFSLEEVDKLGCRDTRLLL
Assay [12] relates to HEK293. Description: NOD1 signaling inhibitors, primary screen, cell-based, luminescence, uHTS (AID 1578). Format: functional. The settings on record: Homo sapiens.
For assay [13], the system named is SN12K1. Description: cells. The class given is functional. The settings on record: Homo sapiens.
Assay [14] relates to P388/ADR. In words: cells. Format: functional. The settings on record: Mus musculus.
The test system of assay [15] is P388. In words: cells. Format: functional. The settings on record: Mus musculus.

Sequence of Cytochrome P450 2C9 (P11712 whole entry): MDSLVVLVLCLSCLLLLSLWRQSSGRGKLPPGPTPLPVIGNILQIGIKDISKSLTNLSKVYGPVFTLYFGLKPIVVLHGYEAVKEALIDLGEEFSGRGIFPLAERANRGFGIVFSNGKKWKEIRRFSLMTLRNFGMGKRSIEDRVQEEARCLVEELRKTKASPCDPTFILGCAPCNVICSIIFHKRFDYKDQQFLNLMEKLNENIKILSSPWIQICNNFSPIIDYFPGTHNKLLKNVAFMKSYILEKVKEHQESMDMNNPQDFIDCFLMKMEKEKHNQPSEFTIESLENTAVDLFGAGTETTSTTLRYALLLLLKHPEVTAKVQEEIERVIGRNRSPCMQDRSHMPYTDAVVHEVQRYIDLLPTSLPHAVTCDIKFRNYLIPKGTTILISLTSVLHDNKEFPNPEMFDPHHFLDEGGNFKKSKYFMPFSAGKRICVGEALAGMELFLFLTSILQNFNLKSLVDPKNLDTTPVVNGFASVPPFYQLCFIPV

Consider `C#CCSc1nnc(-c2sc(-c3ccccc3)nc2C)n1C`, for which the results for the AC50 in assay [1] and in assay [4] were 17.8 µM (inconclusive) and 2.88 µM (active), respectively. The results for the EC50 in [2], in [3] and in [5] were > 120 µM (not active), 48.9 µM (active) and 16.9 µM (active), respectively.
For the molecule `Cc1ccc(Nc2c([N+](=O)[O-])nn(-c3ccc4c(c3)OCCO4)[n+]2[O-])cc1F`, the IC50 (in general, the concentration that gives 50% inhibition) in [6] is > 20 µM (inactive); in assay [7] it was > 20 µM (inactive); in assay [9] it was > 20 µM (inactive); in [10], 0.842 µM (active). Besides, the AC50 (commonly the midpoint of the concentration-response curve, whichever way the signal moves) in [8] was 0.538 µM (active). The EC50 in assay [11] and in assay [12] was > 20 µM (inactive) in each case.
As for `Cc1nc2nc(SCC(=O)NCc3ccco3)nn2c(C)c1Cc1ccccc1`, the AC50 in [4] was 0.704 µM (active).
Take `CSc1ccc(S(=O)(=O)N2CCC(C(=O)Nc3cccnc3)CC2)cc1`: the AC50 in [4] is 0.807 µM (active).
For the molecule `Nc1ccn(C2OC(CO)C(O)C2O)c(=O)n1` (stereo not given), the figures for the GI50 in assay [13], in assay [14] and in [15] were 0.07 µM (active), 0.05 µM (active) and 0.05 µM (active), respectively.
With `CC(=O)OCc1cc(=O)n(C)c2c3c4c(cc12)c(C)cc(=O)n4CO3`, the GI50 (in general, the concentration that inhibits growth by half) was 0.843 µM (active) in [13], 0.531 µM (active) in assay [14] and 0.344 µM (active) in assay [15].
The like results for `CCCCC1(C2c3ccccc3Oc3ccccc32)C(=O)N(c2ccccc2)N(c2ccccc2)C1=O` were, in that order, 34.8 µM (inactive), 17.6 µM (inactive) and 9.82 µM (inactive).
As to `CN1c2ccc(-c3cccc(F)c3)cc2[C@H]2[C@H](CCN2C(=O)C2CCOCC2)[C@H]1CO`, in assay [4], the AC50 was 0.108 µM (active).
Turning to `NCCCNCCSP(=O)(O)O` [AMIFOSTINE], the GI50 in assay [13] is > 667 µM (inactive); in assay [14], 84.3 µM (inactive); in assay [15], 54.6 µM (inactive).
Take `Cn1c(/C=C/CO)c(CO)c2c1C(=O)C=C(N1CC1)C2=O` [APAZIQUONE]: the GI50 is 0.0102 µM (active) in [13], 0.506 µM (active) in assay [14] and 0.94 µM (active) in [15].
